Among the data in BindingDB's records for doi:10.1021/jm7012858 (Wyeth Research, 2008) are IC50 values, retold here.

The pIC50 is the negative decadic logarithm of the IC50, by convention in mol/L. Read a low pIC50 as a large IC50.

pIC50: −log10 of the molar value.

Phosphatidylinositol 3-kinase regulatory subunit alpha/4,5-bisphosphate 3-kinase catalytic subunit alpha isoform, sequence (P27986 whole entry, canonical isoform): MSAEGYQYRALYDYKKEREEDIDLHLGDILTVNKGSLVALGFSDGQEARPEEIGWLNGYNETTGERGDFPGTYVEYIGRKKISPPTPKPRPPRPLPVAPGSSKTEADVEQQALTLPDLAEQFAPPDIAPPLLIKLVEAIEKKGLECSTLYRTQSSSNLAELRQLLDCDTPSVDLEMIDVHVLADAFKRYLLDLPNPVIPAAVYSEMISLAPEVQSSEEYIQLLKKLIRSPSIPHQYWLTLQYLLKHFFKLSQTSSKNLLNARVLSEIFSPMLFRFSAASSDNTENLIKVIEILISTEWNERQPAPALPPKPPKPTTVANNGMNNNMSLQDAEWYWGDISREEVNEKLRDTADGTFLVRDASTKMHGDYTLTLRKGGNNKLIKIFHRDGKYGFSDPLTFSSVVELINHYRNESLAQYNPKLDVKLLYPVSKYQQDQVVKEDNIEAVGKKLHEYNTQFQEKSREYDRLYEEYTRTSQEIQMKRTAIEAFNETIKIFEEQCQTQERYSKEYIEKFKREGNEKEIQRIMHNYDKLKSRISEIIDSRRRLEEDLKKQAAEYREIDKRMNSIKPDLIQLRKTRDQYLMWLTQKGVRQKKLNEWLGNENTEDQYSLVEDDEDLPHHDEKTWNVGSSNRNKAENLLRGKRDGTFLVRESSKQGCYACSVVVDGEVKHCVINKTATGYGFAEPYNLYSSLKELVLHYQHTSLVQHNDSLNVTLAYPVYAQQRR
Phosphatidylinositol 3-kinase regulatory subunit alpha/4,5-bisphosphate 3-kinase catalytic subunit alpha isoform, sequence (P42336 whole entry, canonical isoform): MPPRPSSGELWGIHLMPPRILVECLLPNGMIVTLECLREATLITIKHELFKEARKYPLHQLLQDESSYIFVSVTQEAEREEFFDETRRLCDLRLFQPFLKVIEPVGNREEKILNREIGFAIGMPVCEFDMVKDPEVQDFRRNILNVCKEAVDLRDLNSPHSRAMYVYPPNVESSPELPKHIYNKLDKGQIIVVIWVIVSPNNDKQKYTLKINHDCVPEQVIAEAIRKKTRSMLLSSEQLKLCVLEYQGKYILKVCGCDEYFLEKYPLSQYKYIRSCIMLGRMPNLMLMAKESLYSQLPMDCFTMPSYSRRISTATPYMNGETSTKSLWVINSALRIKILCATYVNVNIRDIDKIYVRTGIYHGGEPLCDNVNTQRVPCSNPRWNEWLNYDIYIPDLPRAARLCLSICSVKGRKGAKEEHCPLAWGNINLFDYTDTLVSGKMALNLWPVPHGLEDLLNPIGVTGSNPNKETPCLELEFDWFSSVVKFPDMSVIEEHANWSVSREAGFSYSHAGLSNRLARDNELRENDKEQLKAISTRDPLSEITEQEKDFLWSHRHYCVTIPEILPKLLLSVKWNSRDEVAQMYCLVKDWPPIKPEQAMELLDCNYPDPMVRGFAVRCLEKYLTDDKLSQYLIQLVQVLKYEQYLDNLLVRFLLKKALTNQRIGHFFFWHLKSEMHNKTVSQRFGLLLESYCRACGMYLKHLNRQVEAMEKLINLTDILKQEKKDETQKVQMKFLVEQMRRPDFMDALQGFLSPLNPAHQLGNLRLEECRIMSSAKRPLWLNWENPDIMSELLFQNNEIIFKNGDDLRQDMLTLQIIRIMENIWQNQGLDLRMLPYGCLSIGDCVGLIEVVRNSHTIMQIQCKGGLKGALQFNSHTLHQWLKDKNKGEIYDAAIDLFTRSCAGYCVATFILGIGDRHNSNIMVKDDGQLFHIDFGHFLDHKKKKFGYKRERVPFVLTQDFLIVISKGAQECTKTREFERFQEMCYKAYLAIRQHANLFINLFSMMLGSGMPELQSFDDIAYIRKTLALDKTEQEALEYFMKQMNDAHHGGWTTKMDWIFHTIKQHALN
Phosphatidylinositol 3-kinase regulatory subunit beta/4,5-bisphosphate 3-kinase catalytic subunit delta isoform, sequence (O00459 whole entry, canonical isoform): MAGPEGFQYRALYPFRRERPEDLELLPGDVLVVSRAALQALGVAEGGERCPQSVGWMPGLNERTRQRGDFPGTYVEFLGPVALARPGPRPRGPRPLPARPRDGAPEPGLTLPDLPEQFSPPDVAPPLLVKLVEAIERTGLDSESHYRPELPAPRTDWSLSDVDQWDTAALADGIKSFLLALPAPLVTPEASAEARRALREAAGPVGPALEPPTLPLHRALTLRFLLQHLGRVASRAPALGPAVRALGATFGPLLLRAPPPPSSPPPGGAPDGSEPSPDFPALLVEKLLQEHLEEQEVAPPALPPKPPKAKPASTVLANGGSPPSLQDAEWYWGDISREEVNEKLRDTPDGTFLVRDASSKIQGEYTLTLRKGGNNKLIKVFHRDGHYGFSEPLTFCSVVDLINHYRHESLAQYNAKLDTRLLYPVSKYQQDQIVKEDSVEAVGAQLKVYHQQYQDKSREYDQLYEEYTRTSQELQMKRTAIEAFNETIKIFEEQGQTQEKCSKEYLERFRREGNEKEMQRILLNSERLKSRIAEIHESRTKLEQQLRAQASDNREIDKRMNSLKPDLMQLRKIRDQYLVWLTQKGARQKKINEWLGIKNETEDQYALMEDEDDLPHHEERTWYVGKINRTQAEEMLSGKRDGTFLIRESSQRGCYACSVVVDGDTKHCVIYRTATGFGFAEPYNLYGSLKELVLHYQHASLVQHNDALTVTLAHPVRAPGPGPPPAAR
Phosphatidylinositol 3-kinase regulatory subunit beta/4,5-bisphosphate 3-kinase catalytic subunit delta isoform, sequence (O00329 whole entry, canonical isoform): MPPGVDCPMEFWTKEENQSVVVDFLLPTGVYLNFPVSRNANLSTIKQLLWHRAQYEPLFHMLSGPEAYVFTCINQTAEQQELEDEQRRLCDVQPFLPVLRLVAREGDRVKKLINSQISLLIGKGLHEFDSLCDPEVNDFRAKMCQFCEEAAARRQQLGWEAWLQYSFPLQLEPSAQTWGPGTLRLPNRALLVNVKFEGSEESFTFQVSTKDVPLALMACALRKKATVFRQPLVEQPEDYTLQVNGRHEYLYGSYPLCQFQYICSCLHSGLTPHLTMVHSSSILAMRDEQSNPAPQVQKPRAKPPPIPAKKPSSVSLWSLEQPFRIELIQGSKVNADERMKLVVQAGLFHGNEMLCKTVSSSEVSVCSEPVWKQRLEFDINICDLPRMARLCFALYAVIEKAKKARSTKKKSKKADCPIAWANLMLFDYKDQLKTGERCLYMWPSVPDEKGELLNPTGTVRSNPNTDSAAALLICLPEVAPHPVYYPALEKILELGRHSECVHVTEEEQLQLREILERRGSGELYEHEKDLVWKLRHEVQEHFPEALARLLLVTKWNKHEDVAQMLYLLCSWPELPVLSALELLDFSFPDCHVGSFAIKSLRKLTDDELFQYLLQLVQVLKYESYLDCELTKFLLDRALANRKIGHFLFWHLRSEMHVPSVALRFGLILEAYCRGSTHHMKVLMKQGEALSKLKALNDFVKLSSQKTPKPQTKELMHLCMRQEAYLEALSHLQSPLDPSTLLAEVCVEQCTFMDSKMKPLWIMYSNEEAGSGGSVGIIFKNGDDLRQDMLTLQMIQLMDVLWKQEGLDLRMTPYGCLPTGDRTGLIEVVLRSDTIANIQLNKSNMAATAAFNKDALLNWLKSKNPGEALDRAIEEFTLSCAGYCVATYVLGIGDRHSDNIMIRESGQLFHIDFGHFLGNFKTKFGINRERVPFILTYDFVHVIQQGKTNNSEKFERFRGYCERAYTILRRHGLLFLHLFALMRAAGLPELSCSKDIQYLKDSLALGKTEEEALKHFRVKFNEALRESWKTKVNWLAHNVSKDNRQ

One assay concerns the target Phosphatidylinositol 3-kinase regulatory subunit alpha/4,5-bisphosphate 3-kinase catalytic subunit alpha isoform (Homo sapiens, UniProt P42336). As to the kind of experiment: PI3K Inhibition Assay.
Settings: not given
As for the experimental part: (§1) Inhibition of PI3K enzyme activity is measured in a microtiter plate-based fluorescence polarization (FP) assay.
For `COC[C@H]1OC(=O)C(=CN2CCC(=O)CC2)C2C(=O)C(=O)C3=C([C@H](OC(C)=O)C[C@@]4(C)C3CC[C@@H]4O)[C@]21C` (stereo partly drawn) [(2R,3S,6E,14S,15S,17R)-8,14-dihydroxy-3-(methoxymethyl)-2,15-dimethyl-5,9-dioxo-6-[(4-oxopiperidin-1-yl)methylidene]-4-oxatetracyclo[8.7.0.0^{2,7}.0^{11,15}]heptadeca-1(10),7-dien-17-yl acetate], the pIC50 was 7.22.

For `COC[C@H]1OC(=O)C(=CN(CCO)CCO)C2C(=O)C(=O)C3=C([C@H](OC(C)=O)C[C@@]4(C)C3CC[C@@H]4O)[C@]21C` (stereo partly drawn) [(2R,3S,6E,14S,15S,17R)-6-{[bis(2-hydroxyethyl)amino]methylidene}-8,14-dihydroxy-3-(methoxymethyl)-2,15-dimethyl-5,9-dioxo-4-oxatetracyclo[8.7.0.0^{2,7}.0^{11,15}]heptadeca-1(10),7-dien-17-yl acetate], the pIC50 is 6.04.

In turn, `CCN(CC)CCN(C)C=C1C(=O)O[C@H](COC)[C@]2(C)C3=C(C(=O)C(=O)C12)C1CC[C@H](O)[C@@]1(C)C[C@H]3OC(C)=O` (stereo partly drawn) [(2R,3S,6E,14S,15S,17R)-6-({[2-(diethylamino)ethyl](methyl)amino}methylidene)-8,14-dihydroxy-3-(methoxymethyl)-2,15-dimethyl-5,9-dioxo-4-oxatetracyclo[8.7.0.0^{2,7}.0^{11,15}]heptadeca-1(10),7-dien-17-yl acetate] gave a pIC50 of 7.30. Against the preceding compound, the pIC50 is 1.26 log units higher. Take `COC[C@H]1OC(=O)C(=CN(C)CCN(C)C)C2C(=O)C(=O)C3=C([C@H](OC(C)=O)C[C@@]4(C)C3CC[C@@H]4O)[C@]21C` (stereo partly drawn) [(2R,3S,6E,14S,15S,17R)-6-({[2-(dimethylamino)ethyl](methyl)amino}methylidene)-8,14-dihydroxy-3-(methoxymethyl)-2,15-dimethyl-5,9-dioxo-4-oxatetracyclo[8.7.0.0^{2,7}.0^{11,15}]heptadeca-1(10),7-dien-17-yl acetate]: the pIC50 is 8.08. For `COC[C@H]1OC(=O)C(=CN(C)CCCC(=O)O)C2C(=O)C(=O)C3=C([C@H](OC(C)=O)C[C@@]4(C)C3CC[C@@H]4O)[C@]21C` (stereo partly drawn) [4-({[(2R,3S,6E,14S,15S,17R)-17-(acetyloxy)-8,14-dihydroxy-3-(methoxymethyl)-2,15-dimethyl-5,9-dioxo-4-oxatetracyclo[8.7.0.0^{2,7}.0^{11,15}]heptadeca-1(10),7-dien-6-ylidene]methyl}(methyl)amino)butanoic acid], the pIC50 is 6.71. This pIC50 is 1.37 log units lower than that of the compound before. Still for that read-out and setting: the value for `COC[C@H]1OC(=O)C(=CN2CCN(Cc3ccccc3)CC2)C2C(=O)C(=O)C3=C([C@H](OC(C)=O)C[C@@]4(C)C3CC[C@@H]4O)[C@]21C` (stereo partly drawn) [(2R,3S,6E,14S,15S,17R)-6-[(4-benzylpiperazin-1-yl)methylidene]-8,14-dihydroxy-3-(methoxymethyl)-2,15-dimethyl-5,9-dioxo-4-oxatetracyclo[8.7.0.0^{2,7}.0^{11,15}]heptadeca-1(10),7-dien-17-yl acetate] was 7.06; that for `COC[C@H]1OC(=O)C(=CN(CCCN(C)C)CCCN(C)C)C2C(=O)C(=O)C3=C([C@H](OC(C)=O)C[C@@]4(C)C3CC[C@@H]4O)[C@]21C` (stereo partly drawn) [(2R,3S,6E,14S,15S,17R)-6-({bis[3-(dimethylamino)propyl]amino}methylidene)-8,14-dihydroxy-3-(methoxymethyl)-2,15-dimethyl-5,9-dioxo-4-oxatetracyclo[8.7.0.0^{2,7}.0^{11,15}]heptadeca-1(10),7-dien-17-yl acetate] was 7.66. On the same count and under the same terms, the value for `COC[C@H]1OC(=O)C(=CN2CCN(C3CCN(C)CC3)CC2)C2C(=O)C(=O)C3=C([C@H](OC(C)=O)C[C@@]4(C)C3CC[C@@H]4O)[C@]21C` (stereo partly drawn) [(2R,3S,6E,14S,15S,17R)-8,14-dihydroxy-3-(methoxymethyl)-2,15-dimethyl-6-{[4-(1-methylpiperidin-4-yl)piperazin-1-yl]methylidene}-5,9-dioxo-4-oxatetracyclo[8.7.0.0^{2,7}.0^{11,15}]heptadeca-1(10),7-dien-17-yl acetate] was 7.04; that for `COC[C@H]1OC(=O)C(=CN(C)CCCN2CCOCC2)C2C(=O)C(=O)C3=C([C@H](OC(C)=O)C[C@@]4(C)C3CC[C@@H]4O)[C@]21C` (stereo partly drawn) [(2R,3S,6E,14S,15S,17R)-8,14-dihydroxy-3-(methoxymethyl)-2,15-dimethyl-6-({methyl[3-(morpholin-4-yl)propyl]amino}methylidene)-5,9-dioxo-4-oxatetracyclo[8.7.0.0^{2,7}.0^{11,15}]heptadeca-1(10),7-dien-17-yl acetate] was 7.62; that for `COC[C@H]1OC(=O)C(=CN2CCOCC2)C2C(=O)C(=O)C3=C([C@H](OC(C)=O)C[C@@]4(C)C3CC[C@@H]4O)[C@]21C` (stereo partly drawn) [(2R,3S,6E,14S,15S,17R)-8,14-dihydroxy-3-(methoxymethyl)-2,15-dimethyl-6-(morpholin-4-ylmethylidene)-5,9-dioxo-4-oxatetracyclo[8.7.0.0^{2,7}.0^{11,15}]heptadeca-1(10),7-dien-17-yl acetate] was 7.43. With `COC[C@H]1OC(=O)C(=CN2CCC(N3CCCCC3)CC2)C2C(=O)C(=O)C3=C([C@H](OC(C)=O)C[C@@]4(C)C3CC[C@@H]4O)[C@]21C` (stereo partly drawn) [(2R,3S,6E,14S,15S,17R)-8,14-dihydroxy-3-(methoxymethyl)-2,15-dimethyl-5,9-dioxo-6-{[4-(piperidin-1-yl)piperidin-1-yl]methylidene}-4-oxatetracyclo[8.7.0.0^{2,7}.0^{11,15}]heptadeca-1(10),7-dien-17-yl acetate], the pIC50 is 7.20.

For the compound `COC[C@H]1OC(=O)C(=CN(C)CC(=O)OC(C)(C)C)C2C(=O)C(=O)C3=C([C@H](OC(C)=O)C[C@@]4(C)C3CC[C@@H]4O)[C@]21C` (stereo partly drawn) [tert-butyl 2-({[(2R,3S,6E,14S,15S,17R)-17-(acetyloxy)-8,14-dihydroxy-3-(methoxymethyl)-2,15-dimethyl-5,9-dioxo-4-oxatetracyclo[8.7.0.0^{2,7}.0^{11,15}]heptadeca-1(10),7-dien-6-ylidene]methyl}(methyl)amino)acetate], the pIC50 is 5.80.

Still in this assay, the particulars now being: pH 7.5; 22 °C.
For the compound `COC[C@H]1OC(=O)C(=CN(C)CCCN(C)C)C2C(=O)C(=O)C3=C([C@H](OC(C)=O)C[C@@]4(C)C3CC[C@@H]4O)[C@]21C` (stereo partly drawn) [(2R,3S,6Z,14S,15S,17R)-6-({[3-(dimethylamino)propyl](methyl)amino}methylidene)-8,14-dihydroxy-3-(methoxymethyl)-2,15-dimethyl-5,9-dioxo-4-oxatetracyclo[8.7.0.0^{2,7}.0^{11,15}]heptadeca-1(10),7-dien-17-yl acetate], the pIC50 is 8.19.

`COC[C@H]1OC(=O)C(=CN(CCN(C)C)C(C)(C)C)C2C(=O)C(=O)C3=C([C@H](OC(C)=O)C[C@@]4(C)C3CC[C@@H]4O)[C@]21C` (stereo partly drawn) [(2R,3S,6Z,14S,15S,17R)-6-({tert-butyl[2-(dimethylamino)ethyl]amino}methylidene)-8,14-dihydroxy-3-(methoxymethyl)-2,15-dimethyl-5,9-dioxo-4-oxatetracyclo[8.7.0.0^{2,7}.0^{11,15}]heptadeca-1(10),7-dien-17-yl acetate] gave a pIC50 of 8.02. Same read-out and setting: to `CCCCN(C)C=C1C(=O)O[C@H](COC)[C@]2(C)C3=C(C(=O)C(=O)C12)C1CC[C@H](O)[C@@]1(C)C[C@H]3OC(C)=O` (stereo partly drawn) [(2R,3S,6Z,14S,15S,17R)-6-{[butyl(methyl)amino]methylidene}-8,14-dihydroxy-3-(methoxymethyl)-2,15-dimethyl-5,9-dioxo-4-oxatetracyclo[8.7.0.0^{2,7}.0^{11,15}]heptadeca-1(10),7-dien-17-yl acetate] belongs 6.20; to `CCN(C=C1C(=O)O[C@H](COC)[C@]2(C)C3=C(C(=O)C(=O)C12)C1CC[C@H](O)[C@@]1(C)C[C@H]3O)CC` (stereo partly drawn) [(2R,3S,6Z,14S,15S,17R)-6-[(diethylamino)methylidene]-8,14,17-trihydroxy-3-(methoxymethyl)-2,15-dimethyl-4-oxatetracyclo[8.7.0.0^{2,7}.0^{11,15}]heptadeca-1(10),7-diene-5,9-dione], 5.11.

The target of a further assay is Phosphatidylinositol 3-kinase regulatory subunit beta/4,5-bisphosphate 3-kinase catalytic subunit beta isoform (Homo sapiens, UniProt P42338). As to the kind of experiment: PI3K Inhibition Assay. As to conditions: pH 7.5; 22 °C. The method, then: as §1
Phosphatidylinositol 3-kinase regulatory subunit beta/4,5-bisphosphate 3-kinase catalytic subunit beta isoform, sequence (P42338 whole entry, canonical isoform): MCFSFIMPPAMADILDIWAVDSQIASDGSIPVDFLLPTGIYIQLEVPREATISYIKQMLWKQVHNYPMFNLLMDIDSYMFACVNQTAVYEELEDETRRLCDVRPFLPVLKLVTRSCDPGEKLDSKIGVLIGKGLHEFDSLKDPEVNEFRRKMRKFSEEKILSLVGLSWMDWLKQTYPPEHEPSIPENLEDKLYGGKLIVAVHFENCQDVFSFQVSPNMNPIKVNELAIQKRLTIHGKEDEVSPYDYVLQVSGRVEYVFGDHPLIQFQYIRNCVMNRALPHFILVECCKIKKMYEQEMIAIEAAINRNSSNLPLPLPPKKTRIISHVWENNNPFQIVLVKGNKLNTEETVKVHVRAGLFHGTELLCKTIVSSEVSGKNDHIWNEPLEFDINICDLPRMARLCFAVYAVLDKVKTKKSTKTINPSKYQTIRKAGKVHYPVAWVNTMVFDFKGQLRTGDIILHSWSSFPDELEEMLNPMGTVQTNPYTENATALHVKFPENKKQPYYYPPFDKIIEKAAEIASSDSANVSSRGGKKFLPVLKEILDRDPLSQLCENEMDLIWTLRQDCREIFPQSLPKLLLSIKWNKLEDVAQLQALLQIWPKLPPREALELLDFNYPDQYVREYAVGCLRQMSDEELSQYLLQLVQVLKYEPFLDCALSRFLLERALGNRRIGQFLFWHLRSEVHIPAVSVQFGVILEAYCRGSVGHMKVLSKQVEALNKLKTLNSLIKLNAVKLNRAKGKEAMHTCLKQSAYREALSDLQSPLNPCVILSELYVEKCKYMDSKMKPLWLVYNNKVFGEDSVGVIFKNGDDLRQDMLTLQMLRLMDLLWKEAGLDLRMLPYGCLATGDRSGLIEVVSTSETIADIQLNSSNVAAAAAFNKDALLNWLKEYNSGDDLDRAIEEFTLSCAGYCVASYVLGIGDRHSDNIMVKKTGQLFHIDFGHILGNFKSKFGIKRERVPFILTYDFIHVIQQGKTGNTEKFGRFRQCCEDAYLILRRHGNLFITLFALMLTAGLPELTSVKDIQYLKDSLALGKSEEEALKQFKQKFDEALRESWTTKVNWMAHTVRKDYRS
Phosphatidylinositol 3-kinase regulatory subunit beta/4,5-bisphosphate 3-kinase catalytic subunit beta isoform, sequence (O00459 whole entry, further chain, canonical isoform): as the sequence (O00459 whole entry, canonical isoform) above
`COC[C@H]1OC(=O)C(=CN(C)CCCN(C)C)C2C(=O)C(=O)C3=C([C@H](OC(C)=O)C[C@@]4(C)C3CC[C@@H]4O)[C@]21C` (stereo partly drawn) [(2R,3S,6Z,14S,15S,17R)-6-({[3-(dimethylamino)propyl](methyl)amino}methylidene)-8,14-dihydroxy-3-(methoxymethyl)-2,15-dimethyl-5,9-dioxo-4-oxatetracyclo[8.7.0.0^{2,7}.0^{11,15}]heptadeca-1(10),7-dien-17-yl acetate] gave a negative-log IC50 (pIC50) of 7.89.

Another assay concerns the target Phosphatidylinositol 3-kinase regulatory subunit beta/4,5-bisphosphate 3-kinase catalytic subunit delta isoform (Homo sapiens, UniProt O00329+O00459). As to the kind of experiment: PI3K Inhibition Assay. As to conditions: pH 7.5; 22 °C. As for the experimental part:
as §1
The compound `COC[C@H]1OC(=O)C(=CN(C)CCCN(C)C)C2C(=O)C(=O)C3=C([C@H](OC(C)=O)C[C@@]4(C)C3CC[C@@H]4O)[C@]21C` (stereo partly drawn) [(2R,3S,6Z,14S,15S,17R)-6-({[3-(dimethylamino)propyl](methyl)amino}methylidene)-8,14-dihydroxy-3-(methoxymethyl)-2,15-dimethyl-5,9-dioxo-4-oxatetracyclo[8.7.0.0^{2,7}.0^{11,15}]heptadeca-1(10),7-dien-17-yl acetate] gave a pIC50 of 7.96.

The next assay concerns the target Phosphatidylinositol 4,5-bisphosphate 3-kinase catalytic subunit gamma isoform/Phosphoinositide 3-kinase regulatory subunit 5 (Homo sapiens, UniProt P48736). Nature of the assay: PI3K Inhibition Assay. As to conditions: pH 7.5; 22 °C. The method, then:
as §1
With `COC[C@H]1OC(=O)C(=CN(C)CCCN(C)C)C2C(=O)C(=O)C3=C([C@H](OC(C)=O)C[C@@]4(C)C3CC[C@@H]4O)[C@]21C` (stereo partly drawn) [(2R,3S,6Z,14S,15S,17R)-6-({[3-(dimethylamino)propyl](methyl)amino}methylidene)-8,14-dihydroxy-3-(methoxymethyl)-2,15-dimethyl-5,9-dioxo-4-oxatetracyclo[8.7.0.0^{2,7}.0^{11,15}]heptadeca-1(10),7-dien-17-yl acetate], the pIC50 is 8.10.
